The compounds below were run against T1, Human OTUB1 wild-type (Homo sapiens, UniProt Q96FW1) (assay: Covalent modification of OTUB1 (adduct formation), mass spectrometry-based assay (OTUB1 covalent binders; selected CFTR or cGAS based bivalent compounds)). Settings: covalent adduct formation with OTUB1 protein.
T1 construct: His tag (N); made in house; host or cells: E. coli BL21-CodonPlus (DE3)-RIPIL
Type: binding
Summary of the method: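 His-tagged human OTUB1 (10 μM), E. coli-expressed, incubated with compound (2500 μM) in 50 mM Tris-HCl pH 7.5, 150 mM NaCl, 0.5 mM TCEP for 1 h at room temperature. Adduct detected by intact-protein LC/ESI-TOF mass spectrometry after buffer exchange; duplicates.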

T1 sequence (Q96FW1 whole entry): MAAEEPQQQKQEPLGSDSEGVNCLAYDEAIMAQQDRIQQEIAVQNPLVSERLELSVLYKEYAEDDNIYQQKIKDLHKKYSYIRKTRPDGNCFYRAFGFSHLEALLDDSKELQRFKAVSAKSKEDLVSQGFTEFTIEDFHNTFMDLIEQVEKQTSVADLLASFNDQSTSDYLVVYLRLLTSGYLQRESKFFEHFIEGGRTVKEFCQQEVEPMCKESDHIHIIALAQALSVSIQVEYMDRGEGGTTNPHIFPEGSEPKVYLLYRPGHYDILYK

% of OTUB1 modified | Compound
80% | CN(C)C/C=C/C(=O)N1CC(NC(=O)c2cc3ccccc3s2)C1 [XS224-154, (E)-N-(1-(4-(dimethylamino)but-2-enoyl)azetidin-3-yl)benzo[b]thiophene-2-carboxamide]
25% | Cc1ccc(NC(=O)C2(O)CN(C(=O)C#CC(C)(C)N(C)C)C2)s1 [XS209-100, 1-(4-(dimethylamino)-4-methylpent-2-ynoyl)-3-hydroxy-N-(5-methylthiophen-2-yl)azetidine-3-carboxamide]
25% | CCC(=O)N1CC2CC(C1)N2C(=O)/C=C/CN(C)C [XS209-28, (E)-4-(dimethylamino)-1-(3-propionyl-3,6-diazabicyclo[3.1.1]heptan-6-yl)but-2-en-1-one]
55% | CN(C)C/C=C/C(=O)N1CCN(c2cc3ccccc3[nH]2)C(=O)C1 [XS185-116, (E)-4-(4-(dimethylamino)but-2-enoyl)-1-(1H-indol-2-yl)piperazin-2-one]
35% | Cc1ccc(N2CC3(CN(C(=O)/C=C/CN(C)C)C3)C2)s1 [XS185-3, (E)-4-(dimethylamino)-1-(6-(5-methylthiophen-2-yl)-2,6-diazaspiro[3.3]heptan-2-yl)but-2-en-1-one]
90% | Cc1ccc(C(=O)N2CC(NC(=O)C#CCN(C)C)C2)s1 [XS224-144, 4-(dimethylamino)-N-(1-(5-methylthiophene-2-carbonyl)azetidin-3-yl)but-2-ynamide]
100% | CC(C)c1ccc(NC(=O)C2CN(C(=O)C#CCN(C)C)C2)s1 [XS224-116, 1-(4-(dimethylamino)but-2-ynoyl)-N-(5-isopropylthiophen-2-yl)azetidine-3-carboxamide]
40% | CC(=O)N1CCC2(CCC(C(=O)N3CC4CC(C3)N4C(=O)/C=C/CN(C)C)CC2)C1 (centres unmarked) [XS209-53, (E)-1-(3-(2-acetyl-2-azaspiro[4.5]decane-8-carbonyl)-3,6-diazabicyclo[3.1.1]heptan-6-yl)-4-(dimethylamino)but-2-en-1-one]
90% | CN(C)C/C=C/C(=O)N1C2CC1CN(C(=O)c1cc3c(s1)CCCC3)C2 [XS190-48, (E)-4-(dimethylamino)-1-(3-(4,5,6,7-tetrahydrobenzo[b]thiophene-2-carbonyl)-3,6-diazabicyclo[3.1.1]heptan-6-yl)but-2-en-1-one]
55% | CN(C)C/C=C/C(=O)N1CC(O)(C(=O)Nc2cc3c(s2)CCCC3)C1 [XS209-176, (E)-1-(4-(dimethylamino)but-2-enoyl)-3-hydroxy-N-(4,5,6,7-tetrahydrobenzo[b]thiophen-2-yl)azetidine-3-carboxamide]
<5% | C=CC(=O)N1CCN(c2cnc(C)n2C)C(=O)C1 [XS165-30, 4-acryloyl-1-(1,2-dimethyl-1H-imidazol-5-yl)piperazin-2-one]
22% | Cc1ccc(NC(=O)C2(C)CN(C(=O)/C=C/CN(C)C)C2)s1 [XS209-21, (E)-1-(4-(dimethylamino)but-2-enoyl)-3-methyl-N-(5-methylthiophen-2-yl)azetidine-3-carboxamide]
75% | CCc1ccc(N2CCN(C(=O)/C=C/CN(C)C)CC2=O)s1 [XS175-63, (E)-4-(4-(dimethylamino)but-2-enoyl)-1-(5-ethylthiophen-2-yl)piperazin-2-one]
8% | CC(C)c1ccc(NC(=O)C2CCN(C(=O)/C=C/CN(C)C)C2)s1 (centres unmarked) [XS175-180, (E)-1-(4-(dimethylamino)but-2-enoyl)-N-(5-isopropylthiophen-2-yl)pyrrolidine-3-carboxamide]
100% | Cc1ccc(NC(=O)C2CN(C(=O)C#CCN(C)C)C2)s1 [XS224-110, 1-(4-(dimethylamino)but-2-ynoyl)-N-(5-methylthiophen-2-yl)azetidine-3-carboxamide]
20% | Cc1ccc(C(=O)N2CCN(C(=O)/C=C/CN(C)C)CC2)s1 [XS185-64, (E)-4-(dimethylamino)-1-(4-(5-methylthiophene-2-carbonyl)piperazin-1-yl)but-2-en-1-one]
2% | Cc1ccc(C(=O)NC2CC3CCC(C2)N3C(=O)/C=C/CN(C)C)s1 (centres unmarked) [XS209-139, (E)-N-(8-(4-(dimethylamino)but-2-enoyl)-8-azabicyclo[3.2.1]octan-3-yl)-5-methylthiophene-2-carboxamide]
23% | Cc1ccc(N2CCC3(CC2)CN(C(=O)/C=C/CN(C)C)C3)s1 [XS185-101, (E)-4-(dimethylamino)-1-(7-(5-methylthiophen-2-yl)-2,7-diazaspiro[3.5]nonan-2-yl)but-2-en-1-one]
98% | Cc1ccc(C(=O)N2CC3CC(C2)N3C(=O)C#CCN(C)C)s1 [XS209-26, 4-(dimethylamino)-1-(3-(5-methylthiophene-2-carbonyl)-3,6-diazabicyclo[3.1.1]heptan-6-yl)but-2-yn-1-one]

% of OTUB1 modified | Compound
80% | Cc1cc(N2CCN(C(=O)/C=C/CN(C)C)CC2=O)cs1 [XS175-59, (E)-4-(4-(dimethylamino)but-2-enoyl)-1-(5-methylthiophen-3-yl)piperazin-2-one]
97% | CC(=O)N1CCc2sc(N3CC4CCC(C3=O)N4C(=O)/C=C/CN(C)C)cc2C1 (centres unmarked) [XS190-70, (E)-3-(5-acetyl-4,5,6,7-tetrahydrothieno[3,2-c]pyridin-2-yl)-8-(4-(dimethylamino)but-2-enoyl)-3,8-diazabicyclo[3.2.1]octan-2-one]
15% | CCCC(=O)N1CC2CC(C1)N2C(=O)C#CC(C)(C)N(C)C [XS209-168, 1-(3-butyryl-3,6-diazabicyclo[3.1.1]heptan-6-yl)-4-(dimethylamino)-4-methylpent-2-yn-1-one]
85% | Cc1ccc(N2CC3CCC(C2=O)N3C(=O)/C=C/CN(C)C)[nH]1 (centres unmarked) [XS197-14, (E)-8-(4-(dimethylamino)but-2-enoyl)-3-(5-methyl-1H-pyrrol-2-yl)-3,8-diazabicyclo[3.2.1]octan-2-one]
100% | Cc1ccc(NC(=O)C2CC3(C2)CN(C(=O)CCl)C3)s1 [XS185-5, 2-(2-chloroacetyl)-N-(5-methylthiophen-2-yl)-2-azaspiro[3.3]heptane-6-carboxamide]
92% | CN(C)C(C)(C)C#CC(=O)N1CC(NC(=O)c2cc3c(s2)CCCC3)C1 [XS224-159, N-(1-(4-(dimethylamino)-4-methylpent-2-ynoyl)azetidin-3-yl)-4,5,6,7-tetrahydrobenzo[b]thiophene-2-carboxamide]
53% | Cc1ccc(NC(=O)C2CN(C(=O)C#CC(C)(C)N(C)C)C2)s1 [XS224-111, 1-(4-(dimethylamino)-4-methylpent-2-ynoyl)-N-(5-methylthiophen-2-yl)azetidine-3-carboxamide]
92% | CN(C)CC#CC(=O)N1CC(NC(=O)c2cc3c(s2)CCCC3)C1 [XS224-158, N-(1-(4-(dimethylamino)but-2-ynoyl)azetidin-3-yl)-4,5,6,7-tetrahydrobenzo[b]thiophene-2-carboxamide]
49% | CN(C)C/C=C/C(=O)N1CC(NC(=O)c2cc3c(s2)CCCC3)C1 [XS224-157, (E)-N-(1-(4-(dimethylamino)but-2-enoyl)azetidin-3-yl)-4,5,6,7-tetrahydrobenzo[b]thiophene-2-carboxamide]
58% | CN(C)C/C=C/C(=O)N1CCN(c2c[nH]c3ccccc23)C(=O)C1 [XS185-43, (E)-4-(4-(dimethylamino)but-2-enoyl)-1-(1H-indol-3-yl)piperazin-2-one]
45% | CC(=O)OCC#Cc1ccc(C(=O)N2CC3CC(C2)N3C(=O)/C=C/CN(C)C)s1 [XS197-96, (E)-3-(5-(6-(4-(dimethylamino)but-2-enoyl)-3,6-diazabicyclo[3.1.1]heptane-3-carbonyl)thiophen-2-yl)prop-2-yn-1-yl acetate]
5% | COc1ccc2c(c1)CN(C(=O)/C=C/CN(C)C)C2 [XS209-25, (E)-4-(dimethylamino)-1-(5-methoxyisoindolin-2-yl)but-2-en-1-one]
25% | Cc1ccc(C(=O)N2CCC3(CN(C(=O)/C=C/CN(C)C)C3)C2)s1 [XS185-97, (E)-4-(dimethylamino)-1-(6-(5-methylthiophene-2-carbonyl)-2,6-diazaspiro[3.4]octan-2-yl)but-2-en-1-one]
98% | CN(C)CC#CC(=O)N1CC(C(=O)Nc2cc3ccccc3s2)C1 [XS224-106, N-(benzo[b]thiophen-2-yl)-1-(4-(dimethylamino)but-2-ynoyl)azetidine-3-carboxamide]
<5% | Cc1ccc(N2CCN(C(=O)/C=C/CN3CCOCC3)CC2=O)s1 [XS165-155, (E)-1-(5-methylthiophen-2-yl)-4-(4-morpholinobut-2-enoyl)piperazin-2-one]
92% | CN(C)C/C=C/C(=O)N1C2CC1CN(C(=O)c1cc3c(s1)CCC3)C2 [XS190-50, (E)-1-(3-(5,6-dihydro-4H-cyclopenta[b]thiophene-2-carbonyl)-3,6-diazabicyclo[3.1.1]heptan-6-yl)-4-(dimethylamino)but-2-en-1-one]
25% | CN(C)C/C=C/C(=O)N1CC2(CC(C(=O)Nc3cc4ccccc4s3)C2)C1 [XS185-91, (E)-N-(benzo[b]thiophen-2-yl)-2-(4-(dimethylamino)but-2-enoyl)-2-azaspiro[3.3]heptane-6-carboxamide]
45% | CC(C)c1ccc(NC(=O)C2CN(C(=O)/C=C/CN(C)C)C2)s1 [XS175-143, (E)-1-(4-(dimethylamino)but-2-enoyl)-N-(5-isopropylthiophen-2-yl)azetidine-3-carboxamide]
70% | Cc1ccc(N2CCN(C(=O)/C=C/CN3CCCCC3)CC2=O)s1 [XS165-170, (E)-1-(5-methylthiophen-2-yl)-4-(4-(piperidin-1-yl)but-2-enoyl)piperazin-2-one]

Source: patent US20260315604A1, “OTUB1 Small-Molecule Binders and OTUB1-recruiting Deubiquitinase-targeting Chimeras (DUBTACs)” (ICAHN SCHOOL OF MEDICINE AT MOUNT SINAI, priority 2023, published 2026)
